Assays:
[1] = molecular target: T1, recombinant GSTP1 lysates (Homo sapiens, UniProt P09211); test: GSTP1 biochemical substrate assay (GSH conjugation to BDNB); details: inhibitor 30 min at 37° C.; n=3; read-out: IC50, in vitro potency against GSTP1 by GSH substrate assay
T1 construct: FLAG (C); host or cells: HEK293T, transient transfection; soluble proteome used unpurified
Protocol: GSTP1 Biochemical Substrate Assay
Recombinant GSTP1-HEK293T soluble cell proteomes were diluted to 1 mg ml^−1 in assay buffer (100 mM NaH2PO4, pH 7.0). Samples were treated with inhibitor at indicated concentrations for 30 min at 37° C. GSH stock solution (250 mM in water) was diluted to 4 mM in assay buffer and 25 μl of diluted GSH solution was added to each sample. A substrate stock solution of 75 mM 1-bromo-2,4-dinitrobenzene […] in ethanol was diluted to 2 mM in assay buffer. Samples (25 μl) were aliquoted into a 96-well plate and spun briefly via centrifuge. Next, 50 μl of 2 mM BDNB was added to each well and the reaction was monitored in kinetic mode by measuring absorbance at 340 nm for 10 min on a BMG Labtech CLARIOstar plate reader (BMG Labtech, Cary, North Carolina, United States of America).

[2] = molecular target: T2, human DPP3 (hDPP3) (Homo sapiens, UniProt Q9NY33); test: Gel-based competitive chemical proteomic screen with HHS-482, recombinant hDPP3-HEK293T soluble proteomes; type: binding; details: 50 μM fragment, 37° C., 30 min; also substantial proteome cross-reactivity
T2 construct: FLAG (C); host or cells: HEK293T, transient transfection; soluble proteome used unpurified
T2 sequence (Q9NY33 1-737): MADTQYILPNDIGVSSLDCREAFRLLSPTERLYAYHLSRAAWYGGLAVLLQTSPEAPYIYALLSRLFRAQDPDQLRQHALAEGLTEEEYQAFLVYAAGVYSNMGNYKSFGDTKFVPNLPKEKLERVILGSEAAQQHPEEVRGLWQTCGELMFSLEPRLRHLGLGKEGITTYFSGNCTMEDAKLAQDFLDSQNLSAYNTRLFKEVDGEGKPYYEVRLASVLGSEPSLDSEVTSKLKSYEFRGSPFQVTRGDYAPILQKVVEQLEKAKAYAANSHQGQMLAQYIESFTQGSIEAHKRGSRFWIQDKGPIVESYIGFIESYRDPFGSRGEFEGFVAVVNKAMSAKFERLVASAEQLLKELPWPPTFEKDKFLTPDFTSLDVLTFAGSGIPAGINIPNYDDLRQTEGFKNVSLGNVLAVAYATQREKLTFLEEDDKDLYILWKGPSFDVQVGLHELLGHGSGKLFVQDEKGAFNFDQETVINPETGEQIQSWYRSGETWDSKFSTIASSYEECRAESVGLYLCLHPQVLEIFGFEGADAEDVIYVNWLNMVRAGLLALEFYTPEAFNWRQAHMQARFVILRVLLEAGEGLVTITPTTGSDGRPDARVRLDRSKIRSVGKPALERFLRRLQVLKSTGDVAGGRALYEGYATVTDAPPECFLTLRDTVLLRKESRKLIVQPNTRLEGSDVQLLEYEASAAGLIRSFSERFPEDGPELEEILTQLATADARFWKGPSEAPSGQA
Protocol: (§1) Gel-Based Chemical Proteomic Assay
(§2) Cell pellets were lysed in PBS and fractionated (100,000×g, 45 min, 4° C.) to generate soluble and membrane fractions. Protein concentrations were determined using Bio-Rad DC protein assay (Bio-Rad Laboratories, Inc., Hercules, California, United States of America), and adjusted to 1 mgml^−1 in PBS. Proteome samples (49 μl aliquots) were treated with DMSO vehicle or indicated concentration of SuTEx fragment (1 μL, 50× stock in DMSO) for 30 min at 37° C. Samples were then treated with HHS-482 probe (1 μL, 2.5 mM stock in DMSO) for 30 min at 37° C. Probe labeled samples were conjugated to rhodamine-azide (1 μL, 1.25 mM stock; final concentration of 25 μM) by copper-catalyzed azide-alkyne cycloadditions (CuAAC) for 1 h at room temperature followed by SDS-PAGE and in-gel fluorescence scanning as previously described^57.

[3] = molecular target: T3, human GSTP1 (hGSTP1) (Homo sapiens, UniProt P09211); test: Gel-based competitive chemical proteomic screen with HHS-482, recombinant hGSTP1-HEK293T soluble proteomes; type: binding; details: fragment 50 μM, 30 min, 37° C.
T3 construct: FLAG (C); host or cells: HEK293T, transient transfection; soluble proteome used unpurified
Protocol: as §1, §2

[4] = molecular target: T4, GSTP1 Y8 (Homo sapiens, UniProt P09211); test: Quantitative chemical proteomics of live SILAC DM93 cells treated with SuTEx fragments; type: cell-based; details: 50 μM compound, 1.5 hr, 37° C.
T4 construct: endogenous in cells; host or cells: DM93 melanoma cells (SILAC)
Protocol: Live Cell Evaluation of Sulfonyl-Triazole Fragments
(§3) Cells grown to ˜90% confluency in 10 cm plates were treated with DMSO vehicle or SuTEx fragment (10 μl of 1,000× stock) in serum-free media for the indicated concentrations and times at 37° C. with 5% CO2. After treatment, cells were washed with cold PBS twice before collection and preparation for gel-based chemical proteomic evaluation as described above. For LC-MS studies, protein concentrations were normalized to 2.3 mg ml^−1 and 432 μl (for 1 mg final protein amount) were used for sample preparation as detailed below.
Heavy and light proteomes (432 μl of each) were diluted to 2.3 mg ml^−1 in PBS and sample aliquots (432 μl) were treated with SuTEx fragment at the indicated concentrations (5 μl, 100× stock in DMSO), mixed gently and incubated for 30 min at 37° C. Samples were then treated with HHS-482 (5 μL, 5 mM stock in DMSO) for 30 min at 37° C. Probe-modified proteomes were conjugated to desthiobiotin-PEG3-azide followed by enrichment of probe-modified peptides for nano-electrospray ionization-LC-MS/MS analyses as previously described^57.
Next, SILAC DM93 cells were treated with JWB152 or JWB198 to determine whether these SuTEx fragments could ligand Y8 of endogenous GSTP1 in living systems (50 μM compound, 1.5 hr, 37° C.). Cells were pretreated with DMSO vehicle or SuTEx fragments followed by cells lysis, HHS-482 labeling of proteomes, and quantitative chemical proteomics.

[5] = molecular target: T5, GSTP1 (Homo sapiens, UniProt P09211); test: Gel-based evaluation of proteomes from recombinant GSTP1-HEK293T cells treated with SuTEx fragments; type: cell-based; details: 50 μM compounds, 4 hr
T5 construct: FLAG (C); expressed in transfected cells; host or cells: HEK293T
Protocol: as §2, §3

[6] = molecular target: T6, membrane proteins in human cell proteomes (Homo sapiens, UniProt P51970); test: Chemical proteomic identification of membrane protein lysine sites modified by TH211; type: binding; details: NDUA8 human, Uniprot P51970; amino acid modified K
T6 construct: endogenous in cells
Protocol: (§4) The light proteome aliquots (2.3 mg/mL, 432 μL) were treated with the probe (5 μL, 100× fresh stock in DMSO) and the heavy proteome aliquots were treated with either the same probe or DMSO (no probe) at 37° C. for 1 h. Then the samples were subjected to click reaction with the desthiobiotin-PEG3-azide (10 mM in DMSO, 10 μL, final concentration 200 μM) in the presence of TCEP (50 mM, 10 μL), TBTA (1.7 mM, 33 μL) and CuSO4 (50 mM, 10 μL) at room temperature for 1 h. The light and the heavy were mixed in the chloroform-methanol extraction step. The subsequent steps including reduction with dithiothreitol, alkylation with iodoacetamide, digestion with Trypsin/Lys-C, enrichment with avidin beads were conducted as previously described.^72,51
(§5) Data acquisition: The enriched peptide samples were analyzed by LC-MS/MS on an Easy-nLC 1200 (Thermo Scientific, Waltham, Massachusetts, United States of America) coupled with an Orbitrap Q Exactive Plus mass spectrometer (Thermo Scientific, Waltham, Massachusetts, United States of America). […] A top 10 data-dependent acquisition method was used, which consisted of one full scan […] scan (m/z 375-1,500) followed by ten MS2 scans of the most abundant ions recorded in the […] scan.
(§6) Data analysis: Identification of peptides and target proteins from the LC-MS/MS raw data was achieved using the Byonic software package (Protein Metrics Inc., Cupertino, California, United States of America) to search against a modified human protein database (UniProt human protein database, angiotensin I and vasoactive intestinal peptide standards; 40660 proteins) with parameters previously described.^72 Identification of probe-modified peptides was accomplished with variable (common) modification of +635.27374 Da for TH211, +608.26284 for TH214, +578.25228 for TH216 on tyrosine and lysine residues. Other added mass such as variable methionine oxidation (+15.9949 Da), fixed cysteine carbamidomethylation (+57.02146 Da) and the SILAC heavy amino acids (+10.0083 Da for R, +8.0142 Da for K) were included in search. The results from Byonic search were imported into Skyline-daily to determine SILAC ratio (SR) of light/heavy peptides.^51 To account for variations in mixing and sample preparation, SRs of peptide from probe/no-probe (the light was treated with the probe while the heavy was treated with DMSO) were normalized to those from probe/probe (both the light and the heavy were treated with the probe). Unless otherwise stated, the results from Skyline-daily output were filtered in R to keep peptides of high quality that meet the following criteria: Byonic score ≥300; a precursor mass error within 5 ppm; normalized SR≥5, with both isotop dot-product (iDOTP) and ratio dot-product (rDOTP)≥0.8. Comparison of probe-modified sites across all probes and cells were performed using the R package ggplot2 and Venn diagrams were generated with the VennDiagram R package.^72 Other bioinformatics analysis such as the domain enrichment analysis and the DrugBank analysis were performed as previously described.^72

[7] = molecular target: T7, membrane proteins in human cell proteomes (Homo sapiens, UniProt Q02750); test: as above; type: binding; details: MP2K1 human, Uniprot Q02750; amino acid modified K
T7 construct: endogenous in cells
Protocol: as §4, §5, §6

[8] = molecular target: T8, membrane proteins in human cell proteomes (Homo sapiens, UniProt Q9BQB6); test: as above; type: binding; details: VKOR1 human, Uniprot Q9BQB6, amino acid modified K
T8 construct: endogenous in cells
Protocol: as §4, §5, §6

[9] = molecular target: T9, membrane proteins in human cell proteomes (Homo sapiens, UniProt Q9P032); test: as above; type: binding; details: NDUF4 human, Uniprot Q9P032; amino acid modified K
T9 construct: endogenous in cells
Protocol: as §4, §5, §6

[10] = test system: membrane proteins in human cell proteomes; test: as above; type: binding; details: amino acid modified K
Protocol: as §4, §5, §6

[11] = molecular target: T10, recombinant human diacylglycerol kinase-alpha (DGKA) (Homo sapiens, UniProt P23743); test: Gel-based probe labeling of recombinant DGKA with TH SuTEx probes; type: binding; details: FIG. 39D, left panel
T10 construct: FLAG (N); made in house; host or cells: HEK293T, transient transfection; lysate used unpurified
Protocol: as §1
Proteome aliquots (2 mg/mL, 49 μL) were treated with probes at indicated concentration (1 μL, 50× stock in DMSO) at 37° C. for 1 h. The subsequent conjugation with fluorophore was accomplished by copper-catalyzed azide-alkyne cycloaddition (CuAAC) with rhodamine-azide (TAMRA-azide, 1.25 mM, 1 μL, final concentration of 25 μM) in the presence of tris(2-carboxyethyl)phosphine (TCEP, 50 mM fresh in water, 1 μL, final concentration of 1 mM), tris[(1-benzyl-1H-1,2,3-triazol-4-yl)methyl]amine (TBTA, 1.7 mM in 4:1 t-butanol/DMSO, 3 μL, final concentration of 100 μM) and CuSO4 (50 mM, 1 μL, final concentration of 1 mM). For samples of live cell treatment, it started with click reaction without the step of the probe treatment in vitro. After 1 h incubation at room temperature, reactions were quenched by adding 4×SDS-PAGE loading buffer and beta-mercaptoethanol (17 μL) and samples were resolved by SDS-PAGE followed by in-gel fluorescence scanning.

T8 sequence (Q9BQB6 whole entry): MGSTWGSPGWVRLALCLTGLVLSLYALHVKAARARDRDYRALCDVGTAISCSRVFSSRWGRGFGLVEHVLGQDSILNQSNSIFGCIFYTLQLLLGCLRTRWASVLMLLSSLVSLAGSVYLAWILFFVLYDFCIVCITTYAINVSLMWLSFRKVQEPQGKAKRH
T6 sequence (P51970 whole entry): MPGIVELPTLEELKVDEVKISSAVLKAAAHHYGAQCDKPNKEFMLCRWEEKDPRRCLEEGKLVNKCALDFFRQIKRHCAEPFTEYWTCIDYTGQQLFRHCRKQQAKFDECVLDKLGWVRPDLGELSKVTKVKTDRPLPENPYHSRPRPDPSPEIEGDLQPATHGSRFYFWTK
T5 sequence (P09211 whole entry, the tested form may be a part): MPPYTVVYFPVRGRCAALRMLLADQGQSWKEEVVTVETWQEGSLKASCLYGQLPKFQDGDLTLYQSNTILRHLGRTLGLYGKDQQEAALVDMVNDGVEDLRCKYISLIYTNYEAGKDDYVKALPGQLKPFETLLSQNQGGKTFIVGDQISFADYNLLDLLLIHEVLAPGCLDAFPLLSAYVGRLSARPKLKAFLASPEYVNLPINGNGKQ
T3 sequence (P09211 whole entry, the tested form may be a part): as above
T1 sequence (P09211 whole entry): as the sequence (P09211 whole entry, the tested form may be a part) above
T4 sequence (P09211 whole entry, the tested form may be a part): as above
T10 sequence (P23743 whole entry): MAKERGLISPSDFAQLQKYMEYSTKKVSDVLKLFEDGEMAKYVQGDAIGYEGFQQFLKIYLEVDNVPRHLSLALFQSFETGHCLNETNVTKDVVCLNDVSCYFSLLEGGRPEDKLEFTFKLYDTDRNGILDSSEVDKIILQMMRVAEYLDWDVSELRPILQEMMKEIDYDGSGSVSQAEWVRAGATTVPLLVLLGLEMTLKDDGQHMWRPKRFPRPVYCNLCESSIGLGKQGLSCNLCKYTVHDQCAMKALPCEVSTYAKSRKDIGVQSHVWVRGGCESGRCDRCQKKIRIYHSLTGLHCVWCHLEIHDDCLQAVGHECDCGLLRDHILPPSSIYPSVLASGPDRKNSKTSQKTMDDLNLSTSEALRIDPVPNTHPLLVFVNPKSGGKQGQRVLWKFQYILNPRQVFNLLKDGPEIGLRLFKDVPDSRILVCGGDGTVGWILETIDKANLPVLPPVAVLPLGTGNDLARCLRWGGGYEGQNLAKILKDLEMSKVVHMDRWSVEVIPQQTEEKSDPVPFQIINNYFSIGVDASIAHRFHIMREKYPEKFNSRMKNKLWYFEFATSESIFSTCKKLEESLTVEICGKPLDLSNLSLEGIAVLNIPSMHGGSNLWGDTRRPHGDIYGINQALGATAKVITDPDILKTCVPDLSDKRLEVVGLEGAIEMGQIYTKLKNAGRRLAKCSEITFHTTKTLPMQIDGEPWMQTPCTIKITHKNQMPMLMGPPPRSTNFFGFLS
T9 sequence (Q9P032 whole entry): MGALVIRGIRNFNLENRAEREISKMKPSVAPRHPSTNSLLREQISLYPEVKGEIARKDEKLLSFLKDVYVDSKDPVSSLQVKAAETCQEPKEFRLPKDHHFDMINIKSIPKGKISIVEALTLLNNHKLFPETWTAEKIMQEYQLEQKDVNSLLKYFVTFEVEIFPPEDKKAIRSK
T7 sequence (Q02750 whole entry): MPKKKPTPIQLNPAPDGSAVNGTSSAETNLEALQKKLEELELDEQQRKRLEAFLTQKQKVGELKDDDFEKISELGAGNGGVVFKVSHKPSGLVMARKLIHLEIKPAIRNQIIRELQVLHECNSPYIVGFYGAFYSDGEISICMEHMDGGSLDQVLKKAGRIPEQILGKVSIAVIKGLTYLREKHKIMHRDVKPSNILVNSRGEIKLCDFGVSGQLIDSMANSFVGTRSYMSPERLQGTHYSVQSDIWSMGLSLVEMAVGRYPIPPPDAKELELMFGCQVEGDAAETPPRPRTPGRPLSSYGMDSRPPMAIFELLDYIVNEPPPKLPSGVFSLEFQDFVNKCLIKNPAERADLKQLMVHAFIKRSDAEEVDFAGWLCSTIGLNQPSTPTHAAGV

Row | IC50 [1] [µM] | competition against recombinant DPP3 [2] | blockade of HHS-482 labeling of native GSTP1 Y8 in live cells [4] [%] | HHS-482 labeling of GSTP1 after live cell treatment [5] | Modified Amino Acid Number [6] | Modified Amino Acid Number [7] | Modified Amino Acid Number ([8]; lysine residue 152) | Modified Amino Acid Number ([8]; lysine residue 159) | Modified Amino Acid Number [9] | fluorescent labeling of recombinant human DGKA [11] | Compound | block of HHS-482 labeling of GSTP1 [3] | Modified Amino Acid Number ([10]; NDUA5 human, Uniprot Q16718) | Modified Amino Acid Number ([10]; NDUB3 human, Uniprot O42676) | Modified Amino Acid Number ([10]; NU5M human, Uniprot P03915) | Modified Amino Acid Number ([10]; PYRD human, Uniprot Q02127)
1 | 23 | potent competition | ~20 | reduced HHS-482 labeling |  |  |  |  |  |  | N#Cc1ccc(S(=O)(=O)n2cnc(-c3ccc(C(F)(F)F)cc3)n2)cc1 [JWB152, 4-((3-(4-(Trifluoromethyl)phenyl)-1H-1,2,4-triazol-1-yl)sulfonyl)benzonitrile] | block HHS-482 labeling to levels comparable with Y8F mutant |  |  |  | 
2 |  |  |  |  | 172 | 97 | 152 | 159 | 24 | concentration dependent manner | C#CCNC(=O)c1ccc(S(=O)(=O)n2cc(CCN3CCC(=C(c4ccc(F)cc4)c4ccc(F)cc4)CC3)nn2)cc1 [TH211, 4-((4-(2-(4-(Bis(4-fluorophenyl)methylene)piperidin-1-yl)ethyl)-1H-1,2,3-triazol-1-yl)sulfonyl)-N-(prop-2-yn-1-yl)benzamide] |  | 30 | 39 | 455 | 166

From US12366579B2, “Sulfur-heterocycle exchange chemistry and uses thereof” (University of Virginia Patent Foundation, priority 2019, dated 2025)
